Measurements taken from patent publication US6908919B2, “Substituted polycyclic aryl and heteroaryl pyrazinones useful for selective inhibition of the coagulation cascade” (Pharmacia Corporation, priority 1999, dated 2005).
Like-named read-outs stand apart in the source and are kept apart here.

How the values were obtained:
[1] = target: T1, recombinant soluble tissue factor and recombinant human factor VIIa (TF-VIIa) (Homo sapiens, UniProt P08709); experiment: TF-VIIa Assay; type: biochemical; settings: for IC50: read-out: IC50 TF-VIIa
T1 construct: conversion of coagulation factor VII to VIIa by Xa; purchased American Diagnostica, Greenwich Conn; host or cells: VIIa purchased; soluble TF made in house in E. coli

Human factor Xa = Human factor Xa (Homo sapiens, UniProt P00742); experiment: Xa Assay; type: biochemical; set-up: purchased Enzyme Research Laboratories, South Bend Ind
Chain of Human factor Xa (P00742 41-179 limits assumed): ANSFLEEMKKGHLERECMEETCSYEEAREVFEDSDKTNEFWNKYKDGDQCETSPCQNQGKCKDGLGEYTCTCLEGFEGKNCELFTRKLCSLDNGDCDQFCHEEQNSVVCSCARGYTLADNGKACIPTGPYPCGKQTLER
Chain of Human factor Xa (P00742 235-488 limits assumed): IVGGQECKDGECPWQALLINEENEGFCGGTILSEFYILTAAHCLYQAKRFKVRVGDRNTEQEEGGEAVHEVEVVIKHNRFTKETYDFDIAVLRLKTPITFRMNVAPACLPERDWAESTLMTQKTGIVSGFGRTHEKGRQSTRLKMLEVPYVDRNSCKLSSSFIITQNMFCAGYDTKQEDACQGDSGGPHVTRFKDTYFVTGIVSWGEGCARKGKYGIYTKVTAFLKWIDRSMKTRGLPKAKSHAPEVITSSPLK

T1 sequence (P08709 61-212 limits assumed): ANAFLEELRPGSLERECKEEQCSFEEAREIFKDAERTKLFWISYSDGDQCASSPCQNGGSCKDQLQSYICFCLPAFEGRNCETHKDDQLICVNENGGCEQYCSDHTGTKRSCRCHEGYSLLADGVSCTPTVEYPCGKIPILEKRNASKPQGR
T1 sequence (P08709 213-466 limits assumed): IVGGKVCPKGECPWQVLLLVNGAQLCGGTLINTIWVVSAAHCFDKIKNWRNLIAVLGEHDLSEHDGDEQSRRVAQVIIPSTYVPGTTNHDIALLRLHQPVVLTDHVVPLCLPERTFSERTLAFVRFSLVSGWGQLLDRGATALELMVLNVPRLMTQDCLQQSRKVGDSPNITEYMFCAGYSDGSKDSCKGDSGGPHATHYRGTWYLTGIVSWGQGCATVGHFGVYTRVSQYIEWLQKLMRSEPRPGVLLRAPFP
T1 sequence (P13726 33-251 partner limits assumed): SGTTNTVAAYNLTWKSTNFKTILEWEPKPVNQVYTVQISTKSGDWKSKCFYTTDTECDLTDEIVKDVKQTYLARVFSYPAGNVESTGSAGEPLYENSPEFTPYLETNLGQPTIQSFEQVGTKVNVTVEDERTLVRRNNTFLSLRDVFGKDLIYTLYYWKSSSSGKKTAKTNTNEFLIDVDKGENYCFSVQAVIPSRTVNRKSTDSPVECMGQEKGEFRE

| SMILES | % Inhibition TF-VIIa (100 µM) ([1]; inhibitor at 100 µM) [%] | % Inhibition Factor Xa (100 µM) (Human factor Xa; inhibitor at 100 µM) [%] | further results |
| --- | --- | --- | --- |
| O=C(Cn1c(-c2ccccc2)c(Cl)nc(NCc2ccncc2)c1=O)NCCc1ccncc1 [Example E-0016] | 0 | 0 |  |
| O=C(Cn1c(CCc2ccccc2)c(Cl)nc(NCc2ccncc2)c1=O)NCCc1ccncc1 [Example E-0072] | 0 | 0 |  |
| Cc1c(Cl)nc(NCCc2cccc(Cl)c2)c(=O)n1CC(=O)NCCc1ccncc1 [Example E-0003] | 0 | 0 |  |
| O=C(Cn1c(-c2ccc(-c3ccccc3)cc2)c(Cl)nc(NCc2ccccc2)c1=O)NCCc1cccnc1 [Example E-0110] |  |  | % Inhibition TF-VIIa (100 µM) [1]: 0%; % Inhibition Factor Xa (100 µM) (Human factor Xa): 3% |
| COc1ccc(-c2c(Cl)nc(NCCc3ccncc3)c(=O)n2CC(=O)NCc2ccc(C(=N)N)cc2)cc1 [1471-37] |  |  | % Inhibition TF-VIIa (30 µM) ([1]; at 30 µM inhibitor): 39%; % Inhibition Factor Xa (30 µM) (Human factor Xa; at 30 µM inhibitor): 7% |
| COC(=O)c1cc(N)cc(-c2c(Cl)nc(NC(C)C)c(=O)n2CC(=O)NCc2ccc(C(=N)N)cc2)c1 [Example 125] |  |  | IC50 [1]: 38 nM; inhibition at 100 µM (Human factor Xa; at 100 μM inhibitor): 36% |
| O=C(Cn1c(-c2ccc(Cl)cc2)c(Cl)nc(NCCc2ccccc2)c1=O)NCCc1ccncc1 [Example E-0026] | 0 | 0 |  |
| O=C(Cn1c(-c2ccc(Cl)cc2)c(Cl)nc(NCCc2cccnc2)c1=O)NCCc1ccncc1 [Example E-0021] | 0 | 1 |  |
| COc1ccc(-c2c(Cl)nc(NCCc3ccccc3)c(=O)n2CC(=O)NCCc2ccncc2)cc1 [Example E-0034] | 0 | 6 |  |
| CC(C)Nc1nc(Cl)c(-c2cc(N)cc(C(=O)NCc3ccccc3)c2)n(CC(=O)NCc2ccc(C(=N)N)cc2)c1=O [Example 128-9] |  |  | IC50 [1]: 7 nM; inhibition at 100 µM (Human factor Xa; at 100 μM inhibitor): 36% |
| CC(C)Nc1nc(Cl)c(-c2cc(N)cc(C(=O)NCc3ccc(Cl)cc3Cl)c2)n(CC(=O)NCc2ccc(C(=N)N)cc2)c1=O [Example 128-5] |  |  | IC50 [1]: 84.7 nM; % Inhibition Factor Xa at 100 μM (Human factor Xa; at 100 μM inhibitor): 43% at 100 μM |
| COc1ccc(-c2c(Cl)nc(NCCc3cccnc3)c(=O)n2CC(=O)NCc2ccc(C(=N)N)cc2)cc1 [1471-40] |  |  | % Inhibition TF-VIIa (30 µM) ([1]; at 30 µM inhibitor): 40%; % Inhibition Factor Xa (30 µM) (Human factor Xa; at 30 µM inhibitor): 11% |
| Cc1c(Cl)nc(NCCN2CCOCC2)c(=O)n1CC(=O)NCCc1ccncc1 [Example E-0007] | 0 | 0 |  |
| Cc1c(Cl)nc(NCc2ccncc2)c(=O)n1CC(=O)NCCc1ccncc1 [Example E-0008] | 0 | 0 |  |
| O=C(Cn1c(-c2ccc(Cl)cc2)c(Cl)nc(NCCc2ccccc2)c1=O)NCCc1ccncc1 [Example E-0018] | 1 | 0 |  |
| CC(C)CNC(=O)c1cc(N)cc(-c2c(Cl)nc(NC(C)C)c(=O)n2CC(=O)NCc2ccc(C(=N)N)cc2)c1 [Example 128-14] |  |  | IC50 [1]: 7.4 nM; inhibition at 100 µM (Human factor Xa; at 100 μM inhibitor): 24% |
| COc1ccc(-c2c(Cl)nc(NCCN3CCOCC3)c(=O)n2CC(=O)NCCc2ccncc2)cc1 [Example E-0039] | 0 | 1 |  |
| O=C(Cn1c(-c2ccccc2)c(Cl)nc(NCCc2cccnc2)c1=O)NCCc1ccncc1 [Example E-0013] | 0 | 0 |  |
| N=C(N)c1ccc(CNC(=O)Cn2c(-c3ccc(-c4ccccc4)cc3)c(Cl)nc(NCc3ccncc3)c2=O)cc1 [1471-67] |  |  | % Inhibition TF-VIIa (30 µM) ([1]; at 30 µM inhibitor): 12%; % Inhibition Factor Xa (30 µM) (Human factor Xa; at 30 µM inhibitor): 16% |
| O=C(Cn1c(-c2cccc(Cl)c2)c(Cl)nc(NCc2ccccc2)c1=O)NCCc1ccncc1 [Example E-0085] | 0 | 0 |  |
| O=C(Cn1c(-c2ccc3c(c2)OCO3)c(Cl)nc(NCCc2ccncc2)c1=O)NCCc1ccncc1 [Example E-0046] | 0 | 0 |  |
| O=C(Cn1c(CCc2ccccc2)c(Cl)nc(NCCc2ccc(Cl)cc2)c1=O)NCCc1ccncc1 [Example E-0068] | 0 | 0 |  |
| O=C(Cn1c(-c2ccc(Cl)cc2)c(Cl)nc(NCCc2cccc(Cl)c2)c1=O)NCCc1ccncc1 [Example E-0019] | 0 | 0 |  |

| SMILES | % Inhibition TF-VIIa (100 µM) ([1]; inhibitor at 100 µM) [%] | % Inhibition Factor Xa (100 µM) (Human factor Xa; inhibitor at 100 µM) [%] | further results |
| --- | --- | --- | --- |
| Cc1c(Cl)nc(NCCc2ccc(Cl)cc2)c(=O)n1CC(=O)NCCc1ccncc1 [Example E-0004] | 0 | 0 |  |
| O=C(Cn1c(-c2cccc(Cl)c2)c(Cl)nc(NCCc2cccc(Cl)c2)c1=O)NCCc1cccnc1 [Example E-0092] | 1 | 3 |  |
| COc1ccc(-c2c(Cl)nc(NCc3ccccc3)c(=O)n2CC(=O)NCCc2ccncc2)cc1 [Example E-0033] | 0 | 0 |  |
| O=C(Cn1c(Cc2ccccc2)c(Cl)nc(NCCc2ccncc2)c1=O)NCCc1ccncc1 [Example E-0062] | 0 | 0 |  |
| Cc1c(Cl)nc(NCc2ccccc2)c(=O)n1CC(=O)NCCc1ccncc1 [Example E-0001] | 0 | 1 |  |
| O=C(Cn1c(-c2ccc(-c3ccccc3)cc2)c(Cl)nc(NCCc2ccccc2)c1=O)NCCc1ccncc1 [Example E-0112] |  |  | % Inhibition TF-VIIa (100 µM) [1]: 11%; % Inhibition Factor Xa (100 µM) (Human factor Xa): 1% |
| Cc1c(Cl)nc(NCCc2ccccc2)c(=O)n1CC(=O)NCCc1ccncc1 [Example E-0002] | 0 | 0 |  |
| COc1ccc(-c2c(Cl)nc(NCCc3cccnc3)c(=O)n2CC(=O)NCCc2ccncc2)cc1 [Example E-0037] | 0 | 0 |  |
| O=C(Cn1c(-c2cccc(Cl)c2)c(Cl)nc(NCc2ccccc2)c1=O)NCCc1ccncc1 [Example E-0073] | 0 | 2 |  |
| O=C(Cn1c(Cc2ccccc2)c(Cl)nc(NCCN2CCOCC2)c1=O)NCCc1ccncc1 [Example E-0063] | 0 | 0 |  |
| O=C(Cn1c(-c2ccc(Cl)cc2)c(Cl)nc(NCCc2ccc(Cl)cc2)c1=O)NCCc1ccncc1 [Example E-0028] | 0 | 0 |  |
| Cc1cccc(Cl)c1CNc1nc(Cl)c(-c2ccccc2)n(CC(=O)NCc2ccc(C(=N)N)cc2)c1=O [1512-31] |  |  | % Inhibition TF-VIIa (30 µM) ([1]; at 30 µM inhibitor): 43%; % Inhibition Factor Xa (30 µM) (Human factor Xa; at 30 µM inhibitor): 14% |
| O=C(Cn1c(-c2ccccc2)c(Cl)nc(NCCc2ccncc2)c1=O)NCCc1ccncc1 [Example E-0014] | 0 | 0 |  |
| NC1=NCCSc2cc(CNC(=O)Cn3c(-c4cccc(N)c4)c(Cl)nc(NC4CCC4)c3=O)ccc21 [Example 154] |  |  | inhibition at 30 µM ([1]; 1 h, at 30 µM inhibitor): 7%; % Inhibition Factor Xa (30 µM) (Human factor Xa; at 30 µM inhibitor): 6% |
| O=C(Cn1c(-c2cccc(Cl)c2)c(Cl)nc(NCCc2ccc(Cl)cc2)c1=O)NCCc1cccnc1 [Example E-0083] | 2 | 3 |  |
| CC(=O)Nc1cccc(-c2c(Cl)nc(NC(C)C)c(=O)n2CC(=O)NCCc2ccc(C(=N)N)cc2)c1 [Example 68] |  |  | % Inhibition TF-VIIa (30 µM) ([1]; at 30 µM inhibitor): 32%; % Inhibition Factor Xa (30 µM) (Human factor Xa; at 30 µM inhibitor): 6% |
| N=C(N)c1ccc(CNC(=O)C(Cc2ccccc2)n2c(-c3ccccc3)c(Cl)nc(NCCc3ccccc3)c2=O)cc1 (centres unmarked) [Example 1517-14] |  |  | % Inhibition TF-VIIa (30 µM) ([1]; at 30 µM): 30%; % Inhibition Factor Xa (30 µM) (Human factor Xa; at 30 µM): 0% |
| COc1ccc(-c2c(Cl)nc(NCCc3cccc(Cl)c3)c(=O)n2CC(=O)NCCc2ccncc2)cc1 [Example E-0035] | 4 | 0 |  |
| O=C(Cn1c(-c2ccccc2)c(Cl)nc(NCCc2ccc(Cl)cc2)c1=O)NCCc1ccncc1 [Example E-0012] | 0 | 0 |  |
| CCc1c(Cl)nc(NCCc2cccc(Cl)c2)c(=O)n1CC(=O)NCc1ccc(C(=N)N)cc1 [1471-62] |  |  | % Inhibition TF-VIIa (30 µM) ([1]; at 30 µM inhibitor): 4%; % Inhibition Factor Xa (30 µM) (Human factor Xa; at 30 µM inhibitor): 0% |
| O=C(Cn1c(-c2ccc3c(c2)OCO3)c(Cl)nc(NCc2ccccc2)c1=O)NCCc1ccncc1 [Example E-0041] | 0 | 0 |  |
| N=C(N)c1ccc(CNC(=O)Cn2c(-c3ccccc3)c(Cl)nc(NCc3ccccn3)c2=O)cc1 [1507-24] |  |  | % Inhibition TF-VIIa (30 µM) ([1]; at 30 µM inhibitor): 0%; % Inhibition Factor Xa (30 µM) (Human factor Xa; at 30 µM inhibitor): 15% |
| O=C(Cn1c(-c2cccc(Cl)c2)c(Cl)nc(NCCc2ccc(Cl)cc2)c1=O)NCCc1cccnc1 [Example E-0095] | 2 | 4 |  |
